Test results published in ChEMBL document CHEMBL1145961, “Metabolism-directed optimization of 3-aminopyrazinone acetamide thrombin inhibitors. Development of an orally bioavailable series containing P1 and P3 pyridines” (J Med Chem, 2003).

Tests used:
Prothrombin = Prothrombin (Homo sapiens, UniProt P00734); experiment: Inhibitory constant against thrombin (IIa)
[1] = (§1) Plasma half-life in dog after peroral administration was evaluated; assay type: ADME, organism-based, Canis lupus familiaris; conditions: plasma, po
Serine protease 1 = Serine protease 1 (Homo sapiens, UniProt P07477); experiment: Inhibitory constant against human trypsin
Serine protease 1, sequence (P07477 whole entry): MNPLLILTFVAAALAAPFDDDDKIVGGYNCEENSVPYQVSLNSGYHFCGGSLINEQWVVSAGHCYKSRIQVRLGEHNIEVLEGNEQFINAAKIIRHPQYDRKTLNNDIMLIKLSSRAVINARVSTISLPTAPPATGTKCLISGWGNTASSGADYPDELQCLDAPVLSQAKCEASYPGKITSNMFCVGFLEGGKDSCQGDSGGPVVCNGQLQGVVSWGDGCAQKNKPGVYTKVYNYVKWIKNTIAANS

[2] = Concentration required to double the activated partial thromboplastin time (2x APTT) in human plasma; assay type: functional
[3] = Maximum plasma concentration in dog after administration of 1 mg/kg dose of compound; assay type: ADME, organism-based, Canis lupus familiaris; design: dose 1 mg/kg
[4] = Oral bioavailability in dog after administration of 1 mg/kg of compound; assay type: ADME, organism-based, Canis lupus familiaris; conditions: in vivo
[5] = Maximum plasma concentration in rat after peroral administration of 10 mg/kg dose of compound; assay type: ADME, organism-based; design: dose 10 mg/kg, route oral; conditions: po
in vivo = conditions: dog, iv, 1 mg/kg
[6] = Maximum plasma concentration in rhesus monkey after peroral administration of 5 mg/kg dose of compound; assay type: ADME, organism-based, Macaca mulatta; design: dose 5 mg/kg, route oral; conditions: po
[7] = Plasma half-life ([…] mg/kg) in rat after intravenous administration; assay type: ADME, organism-based; conditions: 10 mg/kg
[8] = Oral bioavailability in Rhesus monkey (dose 5 mg/kg); assay type: ADME, organism-based, Macaca mulatta; conditions: in vivo
[9] = Oral bioavailability in rat (dose 10 mg/kg); assay type: ADME, organism-based; conditions: in vivo
[10] = Maximum plasma concentration in dog after peroral administration of 1 mg/kg dose of compound; assay type: ADME, organism-based, Canis lupus familiaris; design: dose 1 mg/kg, route oral; conditions: po
[11] = Plasma half-life (5 mg/kg) in rhesus monkey after intravenous administration; assay type: ADME, organism-based, Macaca mulatta
[12] = Maximum plasma concentration in dog after peroral administration of 0.65 mg/kg dose of compound; assay type: ADME, organism-based, Canis lupus familiaris; design: dose 0.65 mg/kg, route oral; conditions: po
[13] = Plasma half-life (0.65 mg/kg) dog after intravenous administration; assay type: ADME, organism-based, Canis lupus familiaris
[14] = Maximum plasma concentration in african green monkey after peroral administration of 5 mg/kg dose of compound; assay type: ADME, organism-based; design: dose 5 mg/kg, route oral; conditions: chlorocebus aethiops, po
[15] = Plasma half-life (5 mg/kg) in african green monkey after intravenous administration; assay type: ADME, organism-based; conditions: chlorocebus aethiops
[16] = Oral bioavailability in dog after administration of 0.65 mg/kg of compound; assay type: ADME, organism-based, Canis lupus familiaris; conditions: in vivo
Canis familiaris = experiment: as §1; assay type: ADME, organism-based, Canis lupus familiaris; conditions: in vivo, po
[17] = Oral bioavailability in african green monkey after administration of 5 mg/kg of compound; assay type: ADME, organism-based; conditions: chlorocebus aethiops, in vivo
[18] = Maximum plasma concentration in dog after administration of 0.5 mg/kg dose of compound; assay type: ADME, organism-based, Canis lupus familiaris; design: dose 0.5 mg/kg
[19] = Maximum plasma concentration in dog after administration of 0.7 mg/kg dose of compound; assay type: ADME, organism-based, Canis lupus familiaris; design: dose 0.7 mg/kg

| SMILES | Ki (Prothrombin) | half-life [1] | Ki (Serine protease 1) | 2x aPTT [2] | Cmax [3] | further results |
| --- | --- | --- | --- | --- | --- | --- |
| Cc1ccnc(CNC(=O)Cn2c(C)cnc(NCC(F)(F)c3ccccc3)c2=O)c1F | 0.0012 µM | 0.7 h | 40 µM | 0.72 µM | 1830 nM | – |
| Cc1cnc(NCCc2ccccc2)c(=O)n1CC(=O)NCc1ccncc1 | 17 µM | – | 251 µM | – | – | – |
| Cc1ccnc(CNC(=O)Cn2c(C#N)cnc(NCC(F)(F)c3ccccn3)c2=O)c1F | 0.0004 µM | 2.4 h | 61 µM | 0.31 µM | 1700 nM | – |
| Cc1nc(N)ccc1CNC(=O)Cn1c(C)cnc(NCC(F)(F)c2ccccn2)c1=O | – | – | 0.8 µM | 0.2 µM | – | – |
| Cc1cnc(NCC(F)(F)c2ccccn2)c(=O)n1CC(=O)NCc1ncccc1F | – | 3.5 h | 252 µM | 0.67 µM | 5640 nM | bioavailability [4]: 87%; Cmax [5]: 2160 nM; half-life (in vivo): 3.5 h; Cmax [6]: 1100 nM; half-life [7]: 0.57 h; bioavailability [8]: 12%; bioavailability [9]: 55%; Cmax [10]: 5640 nM; half-life [11]: 0.99 h |
| O=C(Cn1c(C(F)(F)F)cnc(NCC(F)(F)c2ccccn2)c1=O)NCc1ncccc1F | 0.044 µM | – | 136 µM | – | – | – |
| Cc1nc(N)ccc1CNC(=O)Cn1c(C)cnc(NCCc2cccnc2)c1=O | 0.00054 µM | – | 3.8 µM | 0.28 µM | – | – |
| Cc1nc(N)ccc1CNC(=O)Cn1c(C)cnc(NCC(C)c2ccccc2)c1=O (centres undefined) | 0.0011 µM | – | 1.6 µM | 0.61 µM | – | – |
| N#Cc1cnc(NCC(F)(F)c2ccccn2)c(=O)n1CC(=O)NCc1ncccc1F | 0.0023 µM | 9.7 h | 213 µM | 0.41 µM | 1170 nM | – |
| O=C(Cn1c(Cl)cnc(NCC(F)(F)c2ccccn2)c1=O)NCc1ncccc1Cl | 0.0079 µM | 5.7 h | 567 µM | 1.41 µM | 62 nM | – |
| Cc1ccnc(CNC(=O)Cn2c(C)cnc(NCC(F)(F)c3ccccc3)c2=O)c1 | 0.0048 µM | – | 270 µM | 1.7 µM | – | – |
| O=C(Cn1c(Cl)cnc(NCC(F)(F)c2ccccn2)c1=O)NCc1ncccc1F [DPOC-4088] | 0.0052 µM | – | 202 µM | 0.78 µM | 1380 nM | Cmax [12]: 1160 nM; half-life [13]: 4.48 h; Cmax [14]: 1710 nM; half-life [15]: 1.6 h; Cmax [5]: 1060 nM; Cmax [6]: 310 nM; half-life [7]: 0.42 h; bioavailability [16]: 66%; T1/2 (Canis familiaris): 6.6 h; bioavailability [8]: 5.2%; bioavailability [17]: 66%; bioavailability [9]: 23%; half-life [11]: 0.73 h |
| Cc1ncccc1CNC(=O)Cn1c(C)cnc(NCCc2ccccc2)c1=O | 0.28 µM | – | > 100 µM | – | – | – |
| Cc1cnc(NCC(F)(F)c2ccccc2)c(=O)n1CC(=O)NCc1cc(Cl)ccn1 | 0.0013 µM | – | 47 µM | 0.89 µM | – | – |
| Cc1ccnc(CNC(=O)Cn2c(Cl)cnc(NCC(F)(F)c3ccccn3)c2=O)c1F | 0.0009 µM | 3.2 h | 80 µM | 0.48 µM | 670 nM | – |
| Cc1ccnc(CNC(=O)Cn2c(C)cnc(NCC(F)(F)c3ccccn3)c2=O)c1 | 0.0028 µM | 2.4 h | 431 µM | 0.59 µM | 4120 nM | – |
| Cc1nc(N)ccc1CNC(=O)Cn1c(C)cnc(NCC(F)(F)c2ccccc2)c1=O | – | – | 0.855 µM | – | – | – |
| Cc1cnc(NCC(F)(F)c2ccccc2)c(=O)n1CC(=O)NCc1ncccc1F | 0.0068 µM | 2 h | 501 µM | 1.26 µM | 3730 nM | – |
| Cc1nc(N)ccc1CNC(=O)Cn1c(C)cnc(NCCc2ccccn2)c1=O | 0.00027 µM | – | 3.6 µM | 0.31 µM | – | – |
| Cc1nc(N)ccc1CNC(=O)Cn1c(C)cnc(NCCc2ccccc2)c1=O [L-375378] | – | – | – | 0.41 µM | – | – |
| O=C(Cn1ccnc(NCC(F)(F)c2ccccn2)c1=O)NCc1ncccc1F | 0.14 µM | – | > 1000 µM | – | – | – |
| COc1ccnc(CNC(=O)Cn2c(Cl)cnc(NCC(F)(F)c3ccccn3)c2=O)c1 | 0.0036 µM | 2 h | 665 µM | 0.71 µM | – | Cmax [18]: 530 nM |
| COc1cccnc1CNC(=O)Cn1c(Cl)cnc(NCC(F)(F)c2ccccn2)c1=O | 0.015 µM | 2.3 h | 706 µM | 2.19 µM | 900 nM | – |
| Cc1cnc(NCCc2ccccc2)c(=O)n1CC(=O)NCc1cccnc1 | 1.2 µM | – | 898 µM | – | – | – |
| Cc1ccnc(CNC(=O)Cn2c(Cl)cnc(NCC(F)(F)c3ccccn3)c2=O)c1 | 0.0053 µM | 2.1 h | 429 µM | 0.91 µM | 2320 nM | – |
| Cc1cnc(NCCc2ccccc2)c(=O)n1CC(=O)NCc1ccccn1 | 0.39 µM | – | > 1000 µM | – | – | – |
| Cc1cnc(NCC(F)(F)c2ccccn2)c(=O)n1CC(=O)NCc1ccccn1 | 0.015 µM | – | > 1000 µM | 2.2 µM | – | – |
| Cc1nc(N)ccc1CNC(=O)Cn1c(C)cnc(NCC(C)(C)c2ccccc2)c1=O | 0.0011 µM | – | 0.8 µM | 0.5 µM | – | – |
| Cc1nc(N)ccc1CNC(=O)Cn1c(C)cnc(NCCc2ccncc2)c1=O | 0.0016 µM | – | 4.6 µM | 0.45 µM | – | – |
| Cc1ccnc(CNC(=O)Cn2c(C)cnc(NCC(F)(F)c3ccccn3)c2=O)c1F | – | 1 h | 118 µM | 0.48 µM | – | Cmax [19]: 1660 nM |
